Data as given in patent US20250034601A1, “HETERODIMERIC BENZALDEHYDE SYNTHASE, METHODS OF PRODUCING, AND USES THEREOF” (Purdue Research Foundation, priority 2021, published 2025).

How the values were obtained:
[1] = tested on: pds-bsα-bsβ VIGS petunia flowers; experiment: Emission of volatiles from pds-bsα-bsβ VIGS petunia flowers; assay type: in vivo, Petunia hybrida; details: 2-day-old VIGS flowers, volatiles collected 20:00 to 21:00, n=6
Description: Petunia hybrida cv. Mitchell diploid (W115, Ball Seed Co., Oxford, Canada) plants were grown under standard greenhouse condition with a light period from 6:00 to 21:00 hour. To link the simultaneous downregulation of PhBSα and PhBSβ6 genes via virus induced gene silencing (VIGS) to the silencing of a marker gene, a previously generated pTRV2-PDS construct containing a 300 bp fragment of Nicotiana benthamiana Phytoene Desaturase (PDS) (CDS nucleotides 580˜879; SEQ ID NO: 11) was used (deposited with the National Center for Biotechnology Information (NCBI) GenBank and having the accession number DQ469932.1 (accepted Dec. 4, 2007)). See Spitzer et al., Reverse genetics of floral scent: Application of tobacco rattle virus-based gene silencing in petunia, Plant Physiology 145: 1241-1250 (2007). The N. benthamiana PDS fragment shared 94.3% sequence identity with P. axillaris PDS gene.
Next, a 301 bp fragment of PhBSα (CDS nucleotides 3˜303 of SEQ ID NO: 3) and a 301 bp fragment of PhBSβ6 (CDS nucleotides 3˜303 of SEQ ID NO: 4) were tandemly cloned downstream of the PDS fragment in a pTRV2-PDS plasmid using ClonExpress II One Step Cloning Kit (Vazyme Biotech Co., Piscataway, NJ), yielding the final construct pTRV2-PDS-PhBSαp.
All binary vectors, including pTRV1, deposited with the NCBI GenBank and having accession number AF406990 (accepted Jun. 11, 2002), pTRV2-PDS and pTRV2-PDS-PhBSαp, were transformed into Agrobacterium tumefaciens strain GV3101. Single colonies for each construct were cultured at 28° C. in Luria-Bertani (LB) medium containing 50 mg/L rifampicin, 50 mg/L gentamycin, and 50 mg/L kanamycin to an optical density at a wavelength of 600 nm (OD600) of 2.4.
Cells were pelleted, washed with infiltration buffer (50 mM MES, pH 5.7, 2 mM Na3PO4, 0.5% glucose and 200 μM acetosyringone), and incubated in the same buffer for 2 hours at room temperature. Yoo et al., An alternative pathway contributes to phenylalanine biosynthesis in plants via a cytosolic tyrosine:phenylpyruvate aminotransferase, Nature Communications 4: 2833 (2013). […]
Petunia flower volatiles were collected by a closed-loop stripping method and analyzed by gas chromatography mass spectrometry (GC-MS) as described in Qian et al., Completion of the cytosolic post-chorismate phenylalanine biosynthetic pathway in plants, Nature Communications 10: 15 (2019), with minor modifications. […] The extracts were pooled together and concentrated to about 200 μL under a mild stream of nitrogen gas, and samples were analyzed on an Agilent 7890B-5977B gas chromatography mass spectrometry (GC-MS) system (Agilent Technologies, Inc., Santa Clara, CA) using an analytical method translated from an established method with the Agilent 6890N-5975B GC-MS system as previously described. […]

[2] = tested on: benzaldehyde synthase (BS) activity in petunia flower crude protein extracts; experiment: BS activity in petunia flower crude protein extracts with different substrates and cofactors (GC-MS); assay type: biochemical, Petunia hybrida; details: substance supplied as cofactor with benzoyl-CoA or in place of benzoyl-CoA; 30 minutes at 28° C.
Description: The crude protein extracts were obtained by extraction of petunia petal tissue with buffer A (3:1 [v/w] buffer/tissue). After centrifugation of slurry at 15,000 g for 20 minutes, the supernatant was desalted with Econo-Pac 10DG Columns (Bio-Rad, Hercules, CA) according to the manufacturer's protocol and 20 μL of desalted protein was used in the activity assays. The reaction was performed for 30 minutes at 28° C. and the product was extracted with 200 μL DCM containing 1 μg naphthalene (internal standard). After centrifugation at 15,000 g for 20 minutes, 2 μL of the bottom DCM phase was injected in GC-MS, with results shown in FIG. 3A. The compounds labeled in FIG. 3A with numbers are (1) benzaldehyde, (2) benzylalcohol, (3) internal standard (naphthalene), and (4) benzylbenzoate and the different assay mixtures described above are identified with their above-associated letters.

[3] = tested on: Prunus dulcis (almond) benzaldehyde synthase (PdBS), recombinant heterodimer PdBSα (SEQ ID NO: 6) / PdBSβ (SEQ ID NO: 9), wild type, MBP-tagged; experiment: Kinetic parameters of recombinant PdBS (BS activity assay, HPLC; benzoyl-CoA + NADPH to benzaldehyde); assay type: biochemical; details: measured at 4 mM NADPH
Description: (§1) The reaction was initiated by adding a protein and incubated at 28° C. for 30 minutes, and the reactions were then terminated by adding 100 μL of 100% ice-cold methanol (MeOH). The BS enzyme assays were performed at an appropriate enzyme concentration so that reaction velocity was proportional to enzyme concentration and linear during the incubation time period. Km and Vmax were determined by non-linear fit to the Michaelis-Menten equation using Graphpad Prism, v8.2.0.
(§2) Triplicate assays were performed for all data points.
(§3) After centrifugation at 15,000 g for 20 minutes, 5 μL of the supernatant were subjected to high-performance liquid chromatography (HPLC) analysis using an Agilent 1260 Infinity II system (Agilent Technologies, Inc., Santa Clara, CA) equipped with an InfinityLab Poroshell 120 EC-C18 column (3.0×150 mm, 2.7 μm) maintained at 35° C. Products were separated with a 15-minute linear gradient of 10% aqueous acetonitrile solution to 100% acetonitrile and monitored at 248 nm using a diode array detector (DAD). Benzaldehyde was identified by comparing the retention time and absorption spectrum with authentic standard.
Quantitation was achieved by using standard curve generated from authentic standard and product verification was performed by GC-MS. Namely, crude protein extracts were obtained by extraction of petunia petal tissue with buffer A (3:1 [v/w] buffer/tissue). After centrifugation of slurry at 15,000 g for 20 minutes, the supernatant was desalted with Econo-Pac 10DG Columns (Bio-Rad Laboratories, Inc., Hercules, CA) according to the manufacturer's protocol and 20 μL of desalted protein was used in BS activity assays. The reaction was performed for 30 minutes at 28° C. and the product was extracted with 200 μL DCM containing 1 μg naphthalene (internal standard). After centrifugation at 15,000 g for 20 minutes, 2 μL of the bottom DCM phase was injected in GC-MS. […]

[4] = biological target: T1, Solanum lycopersicum (tomato) benzaldehyde synthase (SlBS), recombinant heterodimer SlBSα (SEQ ID NO: 7) / SlBSβ (SEQ ID NO: 10), wild type, MBP-tagged (Solanum lycopersicum, UniProt A0A3Q7HAN1+A0A3Q7ILR9); experiment: Kinetic parameters of recombinant SlBS (BS activity assay, HPLC; benzoyl-CoA + NADPH to benzaldehyde); assay type: biochemical; details: measured at 4 mM NADPH; pH 6.5, 28° C.
T1 sequence (A0A3Q7ILR9 with tags, fused parts or gaps): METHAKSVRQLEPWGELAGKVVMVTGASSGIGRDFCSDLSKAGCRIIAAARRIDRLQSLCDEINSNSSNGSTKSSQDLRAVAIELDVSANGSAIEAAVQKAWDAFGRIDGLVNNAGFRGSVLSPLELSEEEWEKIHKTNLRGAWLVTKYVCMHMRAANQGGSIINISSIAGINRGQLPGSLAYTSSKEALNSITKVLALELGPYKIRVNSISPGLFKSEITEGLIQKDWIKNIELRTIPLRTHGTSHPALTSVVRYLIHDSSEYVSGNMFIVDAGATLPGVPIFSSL
T1 sequence (A0A3Q7HAN1 1-266): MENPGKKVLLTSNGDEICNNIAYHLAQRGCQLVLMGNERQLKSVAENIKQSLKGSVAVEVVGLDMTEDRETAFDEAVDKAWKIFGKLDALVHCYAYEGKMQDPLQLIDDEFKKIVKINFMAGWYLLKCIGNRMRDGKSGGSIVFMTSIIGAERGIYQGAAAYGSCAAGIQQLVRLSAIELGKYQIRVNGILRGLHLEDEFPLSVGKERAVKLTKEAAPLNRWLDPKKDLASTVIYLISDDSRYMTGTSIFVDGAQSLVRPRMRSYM
Description: as §1, §2, §3
(§4) Quantitation was achieved by using standard curve generated from authentic standard and product verification was performed by GC-MS. Namely, crude protein extracts were obtained by extraction of petunia petal tissue with buffer A (3:1 [v/w] buffer/tissue). […]

[5] = tested on: Petunia hybrida benzaldehyde synthase (PhBS), recombinant heterodimer PhBSα (SEQ ID NO: 1) / PhBSβ (SEQ ID NO: 2), wild type, MBP-tagged; experiment: Kinetic parameters of recombinant PhBS (BS activity assay, HPLC; benzoyl-CoA + NADPH to benzaldehyde); assay type: biochemical; details: measured at 4 mM NADPH
Description: as §1, §2, §3, §4

[6] = assuming one catalytic center per heterodimer of BS

Row | Molecule | reduction of emission in pds-bsα-bsβ flowers relative to pds control [1] | benzaldehyde formation by crude extracts [2] | further results
1 | O=C(OCc1ccccc1)c1ccccc1 [benzylbenzoate] | 35.6% | – | –
2 | NC(=O)c1ccc[n+]([C@@H]2O[C@H](COP(=O)([O-])OP(=O)(O)OC[C@H]3O[C@@H](n4cnc5c(N)ncnc54)[C@H](OP(=O)(O)O)[C@@H]3O)[C@@H](O)[C@H]2O)c1 [NADP^+] | – | No benzaldehyde was formed | –
3 | O=Cc1ccccc1 [Benzaldehyde (D5, 111), Benzaldehyde] | 68.3% | – | –
4 | nicotinamide adenine dinucleotide phosphate [NADPH] | – | Efficient conversion of benzoyl-CoA to benzaldehyde | –
5 | OCc1ccccc1 [Benzylalcohol (D5, 113), Benzylalcohol] | 62.9% | – | –
6 | O=CCc1ccccc1 [Phenylacetaldehyde (D7 + D8, 97 + 98), Phenylacetaldehyde] | 41.2% | – | –
7 | O=C(O)C=Cc1ccccc1 [cinnamic acid] | – | No benzaldehyde was formed | –
8 | NC(=O)c1ccc[n+]([C@@H]2O[C@H](COP(=O)([O-])OP(=O)(O)OC[C@H]3O[C@@H](n4cnc5c(N)ncnc54)[C@H](O)[C@@H]3O)[C@@H](O)[C@H]2O)c1 [NAD^+] | – | No benzaldehyde was formed | –
9 | CC(C)(COP(=O)(O)OP(=O)(O)OC[C@H]1O[C@@H](n2cnc3c(N)ncnc32)[C@H](O)[C@@H]1OP(=O)(O)O)[C@@H](O)C(=O)NCCC(=O)NCCSC(=O)c1ccccc1 [benzoyl-CoA] | – | – | kcat (benzoyl-CoA) [3, 6]: 5.26 ± 0.20 s⁻¹; Vmax (benzoyl-CoA) ([3]; pH 6.5, 28° C.): 35.4 ± 1.3 nKat/mg; Km ([3]; read-out: Km for benzoyl-CoA, apparent, pH 6.5, 28° C.): 629 ± 67.7 µM; Vmax (benzoyl-CoA) [4]: 13.2 ± 3.0 nKat/mg; kcat (benzoyl-CoA) [5, 6]: 9.39 ± 0.40 s⁻¹; Vmax (benzoyl-CoA) ([5]; pH 6.5, 28° C.): 63.5 ± 2.7 nKat/mg
10 | O=C(O)c1ccccc1 [benzoic acid] | – | No benzaldehyde was formed | –
